Laboratory results from ChEMBL document CHEMBL1955773, “Hit to lead SAR study on benzoxazole derivatives for an NPY Y5 antagonist” (Bioorg Med Chem Lett, 2012).

Tests used:
[1] = Metabolic stability of the compound in rat microsomes assessed as compound remaining after 30 mins; type: ADME, Microsome; details: read-out: Stability
Cerebrospinal fluid = experiment: Drug uptake in rat cerebrospinal fluid at 0.5 mg/kg, iv and 1 mg/kg, po; type: ADME, organism-based; details: in vivo, read-out: Drug uptake
[2] = Bioavailability in rat at 0.5 mg/kg, iv and 1 mg/kg, po; type: ADME, organism-based; details: in vivo
[3] = Total clearance in rat at 0.5 mg/kg, iv and 1 mg/kg, po; type: ADME, organism-based; details: in vivo
[4] = Volume of distribution at steady state in rat at 0.5 mg/kg, iv and 1 mg/kg, po; type: ADME, organism-based; details: in vivo, read-out: Vdss
[5] = Ratio drug uptake in brain to plasma of rat at 1 mg/kg, po; type: ADME, organism-based; design: dose 1 mg/kg, route oral; details: read-out: BPR
[6] = AUC (0 to infinity) in rat at 0.5 mg/kg, iv and 1 mg/kg, po; type: ADME, organism-based; details: plasma
[7] = Cmax in rat at 0.5 mg/kg, iv and 1 mg/kg, po; type: ADME, organism-based; details: in vivo

Row | Compound | remaining at 0.5 h [1] [%] | other results
1 | CCS(=O)(=O)c1ccc2oc(Nc3ccc(N4CCOCC4)nc3)nc2c1 | 81 | 
2 | CCS(=O)(=O)c1ccc2oc(Nc3ccccc3C(F)(F)F)nc2c1 | 68 | 
3 | CCS(=O)(=O)c1ccc2oc(Nc3ccc(N4C[C@@H](C)O[C@@H](C)C4)nc3)nc2c1 | 59 | 
4 | CCS(=O)(=O)c1ccc2oc(NC(C)(C)c3ccccc3)nc2c1 | 35 | 
5 | CCS(=O)(=O)c1ccc2oc(Nc3ccc(N4C[C@@H](C)O[C@@H](C)C4)cc3)nc2c1 | 85 | concentration (Cerebrospinal fluid): 15.9 nM; bioavailability [2]: 52%; clearance [3]: 33 mL/min/kg; Vd [4]: 1.74 L/kg; Kp [5]: 0.64; AUC(0-inf) [6]: 260 ng·h/mL; Cmax [7]: 26 ng/mL
6 | CCS(=O)(=O)c1ccc2oc(Nc3ccc(N4CCOCC4)cc3)nc2c1 | 88 | 
7 | CCS(=O)(=O)c1ccc2oc(NC3CCC(C(C)(C)C)CC3)nc2c1 (mixture of isomers) | 1 | 
8 | C[C@@H]1CN(c2ccc(Nc3nc4ccc(NS(=O)(=O)C(C)(C)C)cc4o3)cc2)C[C@H](C)O1 | 68 | 
9 | CCS(=O)(=O)c1ccc2oc(NC3CCCCC3)nc2c1 | 45 | 
10 | CCS(=O)(=O)c1ccc2oc(Nc3ccc(C(F)(F)F)cn3)nc2c1 | 97 | 
11 | CCS(=O)(=O)c1ccc2oc(Nc3cccc(C(F)(F)F)c3)nc2c1 | 63 | 
12 | CCS(=O)(=O)c1ccc2oc(Nc3ccc(N4C[C@@H](C)O[C@@H](C)C4)c(F)c3)nc2c1 | 61 | 
13 | CCS(=O)(=O)c1ccc2oc(Nc3ccc(C(F)(F)F)nc3)nc2c1 | 99 | 
14 | CCS(=O)(=O)c1ccc2oc(NCc3ccccc3)nc2c1 | 46 | 

Now from value to compound, other results behind:

Row | remaining at 0.5 h [1] [%] | Compound | other results
15 | 57 | CCOc1ccc(Nc2nc3ccc(NS(=O)(=O)C(C)(C)C)cc3o2)cc1 | 
16 | 86 | CCOc1ccc(Nc2nc3ccc(NS(=O)(=O)CC)cc3o2)cc1 | 
17 | 49 | CCOc1ccc(Nc2nc3cc(S(=O)(=O)C(C)C)ccc3o2)cc1 | 
18 | 81 | CCOc1ccc(Nc2nc3ccc(S(=O)(=O)CC)cc3o2)cc1 | 
19 | 59 | CCOc1ccc(Nc2nc3cc(NS(=O)(=O)CC)ccc3o2)cc1 | 
20 | 81 | CCS(=O)(=O)c1ccc2oc(Nc3ccc(Cl)cc3)nc2c1 | 
21 | 62 | CCOc1ccc(Nc2nc3cc(S(C)(=O)=O)ccc3o2)cc1 | 
22 | 27 | CCS(=O)(=O)c1ccc2oc(Nc3ccc(C(C)(C)C)cc3)nc2c1 | 
23 | 46 | CCOc1ccc(Nc2nc3cc(S(=O)(=O)C(C)(C)C)ccc3o2)cc1 | 
24 | 73 | CCS(=O)(=O)c1ccc2oc(Nc3ccc(OC(C)C)cc3)nc2c1 | concentration (Cerebrospinal fluid): 8.8 nM; bioavailability [2]: 16%; clearance [3]: 66 mL/min/kg; Vd [4]: 2.62 L/kg; Kp [5]: 2.63; AUC(0-inf) [6]: 40 ng·h/mL; Cmax [7]: 6 ng/mL
25 | 53 | CCS(=O)(=O)c1ccc2oc(Nc3ccccc3)nc2c1 | 
26 | 101 | CCS(=O)(=O)c1ccc2oc(Nc3ccc(C(F)(F)F)cc3)nc2c1 | 
27 | 97 | CCS(=O)(=O)c1ccc2oc(Nc3ccc(OC(F)(F)F)cc3)nc2c1 | 
